Measured values: EP2732821A1, “Amphoteric polyamidoamines in the treatment of malaria” (Universita' Degli Studi Di Milano, priority 2012, dated 2014)
Where two headings read alike, the source gives them in different places.

Columns and labels:
[1] = test system: P. yoelii XL-infected mice; conditions: for % parasitemia: day 4
Protocol: Briefly, mice were inoculated 2 × 10^6 red blood cells from P. yoelii XL-infected mice by intraperitoneal (ip) injection. […] Tested compounds were prepared at appropriate doses in PBS. The control groups received PBS (n=3). The parasitemia was monitored daily by microscopic examination of Wright's-stained thin-blood smears. Activity was calculated by microscopic counting of blood smears from day 4.

[2] = test system: P. falciparum 3D7 cultures; test: microbe, parasite or virus in culture; conditions: Plasmodium falciparum, 3D7, 48 h
Protocol: Parasitemia of P. falciparum 3D7 cultures was adjusted to 1.5% with more than 90% of parasites at ring stage after sorbitol synchronization. 98 µL of this Plasmodium culture was plated in 96-well plates and incubated in the presence of phosphate-buffered saline (PBS) solutions of the free drugs or of polymer/drug conjugates (ISA 23-PQ obtained in Example3; AGMA1-PQ obtained in Example 4,; ISA 23-CQ obtained in Example 3; AGMA1-CQ obtained in Example 4) for 48 h at 37°C under a gas mixture of 92% N2, 5% CO2, and 3% O2. Parasitemia was determined by microscopic counting of blood smears, or by FACS. Table 2. Effect of free primaquine, ISA23-PQ and AGMA1-PQ on the growth of P. falciparum. The polymers were added to P. falciparum cultures at the ring stage, and incubated for 48 h before determining parasitemia.

[3] = test system: P. yoelii-infected mice; conditions: oral, 100 mg kg^-1; cited from earlier work
[4] = test system: P. berghei-infected mice; conditions: single intravenous dose of 1 mg kg^-1, free drug; cited from earlier work

CCN(CC)CCCC(C)Nc1ccnc2cc(Cl)ccc12 (centres unmarked) [CQ soluble, chloroquine]
% parasitemia ([1]; chloroquine 1 mg/kg per day ip for 4 days): 37.7%
% parasitemia ([1]; chloroquine 2.5 mg/kg): 20.1%
elimination of parasitemia and cure of the animals ([1]; intraperitoneal 4 × 1 mg kg^-1 doses of CQ, free CQ at the same or even a larger amount): unable to eliminate parasitemia or cure the animals
inhibition at 0.0026 µg/mL [2]: 8.9%
inhibition at 0.00515 µg/mL [2]: 22.6%
inhibition at 0.0103 µg/mL [2]: 72.9%
inhibition at 0.0206 µg/mL [2]: 82.1%
inhibition at 0.0414 µg/mL [2]: 85.9%
inhibition at 0.0824 µg/mL [2]: 86.4%

COc1cc(NC(C)CCCN)c2ncccc2c1 (centres unmarked) [PQ soluble, primaquine]
inhibition at 0.44 µg/mL [2]: 6.9%
inhibition at 0.88 µg/mL [2]: 40.9%
inhibition at 1.76 µg/mL [2]: 53.9%
inhibition at 3.52 µg/mL [2]: 80.3%
inhibition at 7.04 µg/mL [2]: 86.6%
inhibition at 14.1 µg/mL [2]: 88.2%

COc1cc(/C=C/C(=O)CC(=O)/C=C/c2ccc(O)c(OC)c2)ccc1O [curcumin]
animals cured [3]: one third

CCCCN(CCCC)CCC(O)c1cc2c(Cl)cc(Cl)cc2c2cc(C(F)(F)F)ccc12 (centres unmarked) [halofantrine]
arrest of infection and survival [4]: unable to arrest the infection or to prolong the survival of the animals
